Experiments:
[1] = tested on: Monocotyledonous and dicotyledonous test plants; test: Example B1 herbicidal action, application post-emergence (Table B1a); assay type: in vivo; details: 250 g/ha, evaluated after 3 weeks, scale 0-10
Method: (§1) Monocotyledonous and dicotyledonous test plants were sown in seed trays in standard soil. Immediately after sowing (pre-emergence) or after 8 to 9 days cultivation (post-emergence), the test compounds were applied by spraying in the form of an aqueous solution derived from the formulation of the technical active ingredient in 0.6 ml acetone and 45 ml formulation solution containing 10.6% Emulsogen EL (CAS RN 61791-12-6), 42.2% N-methylpyrrolidone, 42.2% dipropylene glycol monomethyl ether (CAS RN 34590-94-8) and 0.2% X-77 (CAS RN 11097-66-8). The test plants were then grown in a greenhouse under optimum conditions. After a test duration of 3 weeks (post-emergence) or 4 weeks (pre-emergence), the test was evaluated (10=total damage to plant, 0=no damage to plant).

[2] = tested on: Monocotyledonous and dicotyledonous test plants; test: Example B1 herbicidal action, application pre-emergence (Table B1b); assay type: in vivo; details: 250 g/ha, evaluated after 4 weeks
Method: as §1

Row | SMILES | herbicidal damage rating, Abutilon [1] | herbicidal damage rating, Amaranthus [1] | herbicidal damage rating, Digitaria [1] | herbicidal damage rating, Panicum [1] | herbicidal damage rating, Setaria [1] | herbicidal damage rating, Sida [1] | herbicidal action (damage rating 0-10), Amaranthus [2] | herbicidal action (damage rating 0-10), Digitaria [2] | herbicidal action (damage rating 0-10), Panicum [2] | herbicidal action (damage rating 0-10), Setaria [2] | herbicidal action (damage rating 0-10), Sida [2]
1 | CC1(C)CC(S(=O)(=O)C(F)(Cl)c2cccc(F)c2F)=NO1 (stereo not shown) [1.148] | 0 | 7 | 8 | 8 | 8 | 2 | 10 | 10 | 10 | 10 | 6
2 | CC1(C)CC(S(=O)(=O)C(F)(F)c2ccccc2OC(F)(F)F)=NO1 [1.67] | 4 | 3 | – | 3 | 5 | 4 | 10 | 10 | 10 | 10 | 9
3 | CC1(C)CC(S(=O)(=O)C(F)(Cl)c2cc(F)ccc2F)=NO1 (stereo not shown) [1.126] | 3 | 0 | 8 | 5 | 5 | 5 | 10 | 10 | 10 | 10 | 8
4 | COc1ccccc1C(F)S(=O)(=O)C1=NOC(C)(C)C1 (stereo not shown) [1.104] | 3 | 0 | 8 | 7 | 7 | 2 | 0 | 9 | 10 | 8 | 3
5 | CC1(C)CC(S(=O)(=O)C(c2c(F)cccc2F)C(F)(F)F)=NO1 (stereo not shown) [Compound No. 1.113, 3-[1-(2,6-difluoro-phenyl)-2,2,2-trifluoro-ethanesulfonyl]-5,5-dimethyl-4,5-dihydroisoxazole] | 2 | 0 | 8 | 3 | 7 | 4 | 8 | 9 | 10 | 10 | 0
6 | CC1(C)CC(S(=O)(=O)C(F)(F)c2ccccc2C#N)=NO1 [1.72] | 3 | 8 | 7 | 7 | 8 | 0 | 10 | 10 | 10 | 10 | 6
7 | CC1(C)CC(S(=O)(=O)C(F)(F)c2cccc(F)c2F)=NO1 [1.116] | 5 | 5 | 8 | 7 | 7 | 0 | 10 | 10 | 10 | 10 | 7
8 | CC1(C)CC(S(=O)(=O)C(F)(F)c2ccccc2)=NO1 [1.77] | 5 | 0 | 8 | 5 | 6 | 3 | 10 | 10 | 10 | 10 | 7
9 | CC1(C)CC(S(=O)(=O)C(F)(Cl)c2ccccc2OC(F)(F)F)=NO1 (stereo not shown) [1.144] | 3 | 3 | 8 | 7 | 7 | 5 | 10 | 10 | 10 | 10 | 8
10 | Cn1nc(C(F)(F)F)c(C(Br)(Br)S(=O)(=O)C2=NOC(C)(C)C2)c1OCC(F)(F)F [2.09] | 7 | 7 | 8 | 8 | 7 | 2 | 10 | 10 | 10 | 10 | 8
11 | CC1(C)CC(S(=O)(=O)C(F)(I)c2c(F)cccc2F)=NO1 (racemic) [Compound No. 1.61] | 3 | 0 | 7 | 4 | 6 | 3 | 10 | 10 | 10 | 10 | 7
12 | COc1ccccc1C(F)(F)S(=O)(=O)C1=NOC(C)(C)C1 [1.107] | 4 | 0 | 8 | 7 | 5 | 5 | 9 | 7 | 9 | 10 | 0
13 | CC1(C)CC(S(=O)(=O)C(F)(F)c2cc(F)cc3c2OCOC3)=NO1 [1.109] | 6 | 5 | 6 | 5 | 3 | 2 | 10 | 10 | 10 | 9 | 0
14 | COC(=O)c1ccc(C(F)(F)S(=O)(=O)C2=NOC(C)(C)C2)c(F)c1 [1.119] | 3 | 5 | 3 | 7 | 7 | 4 | – | – | – | – | –
15 | COCCC(c1c(F)cccc1F)S(=O)(=O)C1=NOC(C)(C)C1 (stereo not shown) [Compound No. 1.03] | 0 | 9 | 6 | 9 | – | 5 | – | – | – | – | –
16 | COc1ccccc1C(F)(Cl)S(=O)(=O)C1=NOC(C)(C)C1 (stereo not shown) [1.142] | 0 | 0 | 8 | 7 | 5 | 3 | – | – | – | – | –
17 | CC1(C)CC(S(=O)(=O)C(F)(Cl)c2ccccc2-c2ccccc2)=NO1 (stereo not shown) [1.149] | 4 | 4 | 5 | 5 | 3 | 5 | – | – | – | – | –
18 | CCOC(=O)c1ccc(C(F)(Cl)S(=O)(=O)C2=NOC(C)(C)C2)c(F)c1 (stereo not shown) [1.128] | 2 | 5 | 4 | 7 | 3 | 0 | – | – | – | – | –
19 | CC1(C)CC(S(=O)(=O)C(F)(Cl)c2ccccc2F)=NO1 (racemic) [1.73] | – | – | – | – | – | – | 10 | 10 | 10 | 10 | 8
20 | CC1(C)CC(S(=O)(=O)C(Br)c2ccccc2-c2ccccc2)=NO1 (stereo not shown) [1.151] | – | – | – | – | – | – | 5 | 0 | 8 | 7 | 4

Source: US8680290B2, “Isoxazoline derivatives and their use as herbicides” (Syngenta Limited, priority 2004, dated 2014)
